Among the data in ChEMBL document CHEMBL4513149, “CO-ADD screening of MMV (CH) - MMV compounds” (2021) are MIC and CC50 values, retold here.

The subject of one assay is Pseudomonas aeruginosa. Put plainly: microbe, parasite or virus in culture. The following applies: ATCC 27853, 18 h, ASSAY_TEST Inhibition of Bacterial Growth, detection method Absorption (OD600), MEDIA CAMHB, plate type 384well, NBS, CORNING #3640.
A further assay concerns Acinetobacter baumannii. Put plainly: microbe, parasite or virus in culture. The following applies: ATCC 19606, 18 h, ASSAY_TEST Inhibition of Bacterial Growth, detection method Absorption (OD600), MEDIA CAMHB, plate type 384well, NBS, CORNING #3640.
The test system of a further assay is Escherichia coli. Put plainly: microbe, parasite or virus in culture. The following applies: ATCC 25922, 18 h, ASSAY_TEST Inhibition of Bacterial Growth, detection method Absorption (OD600), MEDIA CAMHB, plate type 384well, NBS, CORNING #3640.
The next assay concerns HEK293. Put plainly: cells. The format is functional. The following applies: Homo sapiens, ATCC CRL1573, HEK293; ASSAY_TEST Inhibition of Cell Viability; detection method Resazurin; Fluorescence (ex560/em590); MEDIA DMEM with 10% FBS; plate type 384well; TC; CORNING #3712; time 18 hr. Background: Resazurin is reduced to fluorescent resorufin, in cell work by metabolically active cells.

The test system of the next assay is Klebsiella pneumoniae. Put plainly: microbe, parasite or virus in culture. The following applies: ATCC 700603, 18 h, ASSAY_TEST Inhibition of Bacterial Growth, detection method Absorption (OD600), MEDIA CAMHB, plate type 384well, NBS, CORNING #3640.
For another assay, the system named is Staphylococcus aureus. Nature of the assay: microbe, parasite or virus in culture. The following applies: ATCC 43300, 18 h, ASSAY_TEST Inhibition of Bacterial Growth, detection method Absorption (OD600), MEDIA CAMHB, plate type 384well, NBS, CORNING #3640.
The next assay concerns Candida albicans. Nature of the assay: microbe, parasite or virus in culture. The following applies: ATCC 90028, ASSAY_TEST Inhibition of Fungal Growth, detection method Absorption (OD530), plate type 384well, NBS, CORNING #3640.

Molecules are shown by their SMILES. Converted amounts (≈) assume the structure as drawn.

Description for Acinetobacter baumannii: Antibacterial activity against Acinetobacter baumannii ATCC 19606 (CO-ADD:GN_034); MIC in CAMBH media using NBS plates, by OD600
Description for Candida albicans: Antifungal activity against Candida albicans ATCC 90028 (CO-ADD:FG_001); MIC in YNB media using NBS plates, by OD630
Description for Cryptococcus neoformans: Antifungal activity against Cryptococcus neoformans H99 ATCC 208821 (CO-ADD:FG_002); MIC in YNB media using NBS plates, by Resazurin OD(600-570)
Description for Escherichia coli: Antibacterial activity against Escherichia coli ATCC 25922 (CO-ADD:GN_001); MIC in CAMBH media using NBS plates, by OD(600)
Description for Klebsiella pneumoniae: Antibacterial activity against Klebsiella pneumoniae MDR ATCC 70063 (CO-ADD:GN_003); MIC in CAMBH media using NBS plates, by OD(600)
Description for Pseudomonas aeruginosa: Antibacterial activity against Pseudomonas aeruginosa ATCC 27853 (CO-ADD:GN_042); MIC in CAMBH media using NBS plates, by OD(600)
Description for Staphylococcus aureus: Antibacterial activity against Staphylococcus aureus MRSA ATCC 43300 (CO-ADD:GP_020); MIC in CAMBH media, using NBS plates, by OD(600)

As for `COc1cccc(-n2nnnc2S(C)(=O)=O)c1`, the MIC in the assay with Pseudomonas aeruginosa, in the assay with Acinetobacter baumannii, in the assay on Escherichia coli, in the assay on Cryptococcus neoformans, in the assay with Klebsiella pneumoniae and against Staphylococcus aureus was greater than 10 µM in each case. In the assay on Candida albicans, this compound gave an MIC greater than 10 µM. In the assay with HEK293, this compound came in with a CC50 of 2.96 µM.

In the case of `O=C(Nc1cccnc1)c1c(O)c2cccc3c2n(c1=O)CC3`, the MIC in the assay on Pseudomonas aeruginosa, against Acinetobacter baumannii, against Escherichia coli, against Cryptococcus neoformans, in the assay with Klebsiella pneumoniae and against Staphylococcus aureus was greater than 10 µM in each case. Besides, the MIC with Candida albicans was greater than 10 µM. In the assay with HEK293, the CC50 is greater than 10 µM.

As to `N=C(N)Nc1ccc(-c2ccc(-c3ccc(NC(=N)N)cc3Cl)o2)c(Cl)c1`, the MIC was determined as 10 µM (≈ 4.03 µg/mL) in the assay on Pseudomonas aeruginosa; 5 µM (≈ 2.02 µg/mL) against Acinetobacter baumannii; 5 µM (≈ 2.02 µg/mL) in the assay with Escherichia coli; 1.25 µM (≈ 0.504 µg/mL) in the assay with Cryptococcus neoformans; 10 µM (≈ 4.03 µg/mL) with Klebsiella pneumoniae; 1.25 µM (≈ 0.504 µg/mL) against Staphylococcus aureus. Also, the MIC with Candida albicans came out at 2.5 µM (≈ 1.01 µg/mL). This compound yielded a CC50 with HEK293 greater than 10 µM.

On to `Nc1nc2cc(-c3cncc(Oc4ccc(F)cc4)c3)ccc2[nH]1`, for which the MIC in the assay with Pseudomonas aeruginosa, against Acinetobacter baumannii, against Escherichia coli, in the assay with Cryptococcus neoformans, against Klebsiella pneumoniae and against Staphylococcus aureus was greater than 10 µM throughout. In addition, the MIC against Candida albicans is greater than 10 µM. The same compound had a CC50 in the assay with HEK293 greater than 10 µM.

Regarding `O=C(Nc1ccc(C(F)(F)F)c(C(F)(F)F)c1)c1cc(Cl)ccc1O`, the MIC in the assay on Pseudomonas aeruginosa, in the assay on Acinetobacter baumannii, in the assay with Escherichia coli, against Cryptococcus neoformans, in the assay with Klebsiella pneumoniae and with Staphylococcus aureus was greater than 10 µM throughout. In addition, the MIC in the assay with Candida albicans is greater than 10 µM. In the assay with HEK293, this compound returned a CC50 greater than 10 µM.

In the case of `Cc1cc(NC(=O)c2ccc(Oc3ccc(Cl)cc3O)o2)no1`, the MIC in the assay on Pseudomonas aeruginosa, in the assay on Acinetobacter baumannii, in the assay with Escherichia coli, in the assay with Cryptococcus neoformans, against Klebsiella pneumoniae and in the assay on Staphylococcus aureus was greater than 10 µM throughout. In the assay on Candida albicans, this compound had an MIC greater than 10 µM. The 50% cytotoxic concentration (CC50) in the assay on HEK293 was greater than 10 µM.

As to `O=C(Nc1ccc2c(c1)B(O)OC2)c1ccccc1C(F)(F)F`, the MIC in the assay on Pseudomonas aeruginosa, in the assay on Acinetobacter baumannii, in the assay with Escherichia coli, with Cryptococcus neoformans, against Klebsiella pneumoniae and in the assay on Staphylococcus aureus was greater than 10 µM throughout. The MIC against Candida albicans is greater than 10 µM. For the same compound, the CC50 with HEK293 was greater than 10 µM.

As to `Clc1cccc(C(c2ccc(CN3CCNCC3)cc2)n2ccnc2)c1` (configuration not stated), the MIC in the assay with Pseudomonas aeruginosa, against Acinetobacter baumannii, with Escherichia coli, with Cryptococcus neoformans, with Klebsiella pneumoniae and against Staphylococcus aureus was greater than 10 µM throughout. For the same compound, the MIC against Candida albicans is greater than 10 µM. The same compound came in with a CC50 in the assay with HEK293 greater than 10 µM.

Take `CCN(CC)S(=O)(=O)c1ccc(C(=O)Nc2cc(C)nn2-c2nc(C)c(C)c(=O)[nH]2)cc1`: the MIC against Pseudomonas aeruginosa, against Acinetobacter baumannii, against Escherichia coli, against Cryptococcus neoformans, in the assay with Klebsiella pneumoniae and with Staphylococcus aureus was greater than 10 µM throughout. Besides, the MIC against Candida albicans is greater than 10 µM. The compound further returned a CC50 with HEK293 greater than 10 µM.

As for `COc1ccc2nccc(NC(=O)C3CCN(CCc4ccc(Cl)cc4)CC3)c2n1`, the MIC in the assay with Pseudomonas aeruginosa is greater than 10 µM; in the assay on Acinetobacter baumannii, greater than 10 µM; in the assay with Escherichia coli, greater than 10 µM; against Cryptococcus neoformans it was greater than 10 µM; in the assay with Klebsiella pneumoniae, greater than 10 µM; against Staphylococcus aureus, 1.25 µM (≈ 0.531 µg/mL). The compound further gave an MIC in the assay with Candida albicans greater than 10 µM. Moreover, the CC50 in the assay on HEK293 is greater than 10 µM.

`O=C1O[C@@H](COc2ccon2)CN1c1cc(F)c(C2=CCN(Cc3ccccc3)CC2)c(F)c1`: the MIC against Pseudomonas aeruginosa, with Acinetobacter baumannii, against Escherichia coli, with Cryptococcus neoformans, in the assay with Klebsiella pneumoniae and against Staphylococcus aureus was greater than 10 µM each time. The compound further returned an MIC against Candida albicans greater than 10 µM. In the assay with HEK293, this compound showed a CC50 greater than 10 µM.

Take `CC(=O)NCC1CN(c2ccc(-c3ccc(CO)cc3)c(F)c2)C(=O)O1` (configuration not stated): the MIC against Pseudomonas aeruginosa is greater than 10 µM; with Acinetobacter baumannii it was greater than 10 µM; with Escherichia coli, greater than 10 µM; with Cryptococcus neoformans, greater than 10 µM; in the assay with Klebsiella pneumoniae, greater than 10 µM; against Staphylococcus aureus it was 1.25 µM (≈ 0.448 µg/mL). This compound also had an MIC against Candida albicans greater than 10 µM. In the assay with HEK293, the CC50 is greater than 10 µM.

Take `CN1CCN(CCCOc2ncc(Nc3ncc(-c4ccc(C(F)(F)F)c(F)c4)nc3C(N)=O)cn2)CC1`: the MIC with Pseudomonas aeruginosa, against Acinetobacter baumannii, in the assay on Escherichia coli, in the assay with Cryptococcus neoformans, against Klebsiella pneumoniae and in the assay on Staphylococcus aureus was greater than 10 µM throughout. The compound further returned an MIC in the assay on Candida albicans greater than 10 µM. The compound further yielded a CC50 with HEK293 greater than 10 µM.

For `Cn1c(=O)c2c(S(C)(=O)=O)snc2n(C)c1=O`, the MIC with Pseudomonas aeruginosa, against Acinetobacter baumannii, against Escherichia coli, against Cryptococcus neoformans, against Klebsiella pneumoniae and in the assay with Staphylococcus aureus was greater than 10 µM in each case. In the assay with Candida albicans, this compound returned an MIC greater than 10 µM. The compound further displayed a CC50 in the assay on HEK293 of 9.72 µM.

`Nc1ccc2ncnc(Nc3ccc(OCc4cccc(F)c4)c(Cl)c3)c2c1`: the MIC against Pseudomonas aeruginosa, in the assay with Acinetobacter baumannii, in the assay on Escherichia coli, against Cryptococcus neoformans, in the assay with Klebsiella pneumoniae and in the assay with Staphylococcus aureus was greater than 10 µM each time. In the assay with Candida albicans, this compound gave an MIC greater than 10 µM. Also, the CC50 in the assay on HEK293 is greater than 10 µM.

In the case of `Cc1[nH]c2ccccc2c1C(c1cccs1)N1CCN(C)CC1` (configuration not stated), the MIC against Pseudomonas aeruginosa, against Acinetobacter baumannii, with Escherichia coli, against Cryptococcus neoformans, with Klebsiella pneumoniae and with Staphylococcus aureus was greater than 10 µM each time. For the same compound, the MIC in the assay on Candida albicans worked out at 5 µM (≈ 1.63 µg/mL). Further, in the assay with HEK293, the CC50 was greater than 10 µM.

On to `CC(=O)NCC1CN(c2ccc(-c3ccc(CNCc4cn[nH]n4)cc3)c(F)c2)C(=O)O1` (configuration not stated), for which the MIC in the assay on Pseudomonas aeruginosa is greater than 10 µM; in the assay with Acinetobacter baumannii it was greater than 10 µM; against Escherichia coli it was greater than 10 µM; against Cryptococcus neoformans, greater than 10 µM; in the assay on Klebsiella pneumoniae, greater than 10 µM; with Staphylococcus aureus, 10 µM (≈ 4.38 µg/mL). Moreover, in the assay on Candida albicans, the MIC was greater than 10 µM. Moreover, the CC50 in the assay with HEK293 was greater than 10 µM.

For `N=C(N)Nc1ccc(-c2ccc(-c3ccc(N=C(N)N)c(Cl)c3)o2)cc1Cl`, the MIC is greater than 10 µM in the assay on Pseudomonas aeruginosa; greater than 10 µM in the assay on Acinetobacter baumannii; greater than 10 µM with Escherichia coli; greater than 10 µM in the assay with Cryptococcus neoformans; greater than 10 µM with Klebsiella pneumoniae; 10 µM (≈ 4.03 µg/mL) in the assay with Staphylococcus aureus. Further, in the assay on Candida albicans, the MIC was greater than 10 µM. For the same compound, the CC50 with HEK293 is greater than 10 µM.

On to `O=C(Nc1ccc(N2CCNCC2)cc1)c1ccn2ncc(-c3cccc(Cl)c3)c2n1`, for which the MIC with Pseudomonas aeruginosa, in the assay on Acinetobacter baumannii, against Escherichia coli, in the assay with Cryptococcus neoformans, against Klebsiella pneumoniae and in the assay on Staphylococcus aureus was greater than 10 µM in each case. Also, in the assay on Candida albicans, the MIC is greater than 10 µM. This compound also returned a CC50 with HEK293 of 9.02 µM.

Turning to `c1cncc(NCc2ccc(-c3cc4ccncc4cc3OC3CCNCC3)s2)c1`, the MIC against Pseudomonas aeruginosa, in the assay with Acinetobacter baumannii, with Escherichia coli, against Cryptococcus neoformans, in the assay with Klebsiella pneumoniae and in the assay with Staphylococcus aureus was greater than 10 µM in each case. For the same compound, the MIC against Candida albicans was greater than 10 µM. For the same compound, in the assay on HEK293, the CC50 was greater than 10 µM.

`Cc1cc(NCCc2ccccc2)nc(NC(=N)Nc2ccc(Cl)cc2)n1`: the MIC against Pseudomonas aeruginosa, against Acinetobacter baumannii, against Escherichia coli, against Cryptococcus neoformans, against Klebsiella pneumoniae and against Staphylococcus aureus was greater than 10 µM in each case. In the assay with Candida albicans, this compound displayed an MIC greater than 10 µM. Further, the CC50 in the assay with HEK293 was greater than 10 µM.

On to `c1ccc(-c2nc(NC3CCCCC3)cc(C3CC3)n2)nc1`, for which the MIC was greater than 10 µM against Pseudomonas aeruginosa; greater than 10 µM in the assay on Acinetobacter baumannii; greater than 10 µM against Escherichia coli; greater than 10 µM against Cryptococcus neoformans; greater than 10 µM in the assay with Klebsiella pneumoniae; 10 µM (≈ 2.94 µg/mL) in the assay with Staphylococcus aureus. Besides, the MIC in the assay with Candida albicans is greater than 10 µM. In the assay on HEK293, this compound displayed a CC50 greater than 10 µM.

As to `Cc1ccc2c(c1C)NC(=O)C21NN=C(c2ccccc2)S1` (configuration not stated), the MIC against Pseudomonas aeruginosa, with Acinetobacter baumannii, in the assay on Escherichia coli, with Cryptococcus neoformans, in the assay on Klebsiella pneumoniae and against Staphylococcus aureus was greater than 10 µM in each case. The same compound yielded an MIC against Candida albicans greater than 10 µM. The compound also returned a CC50 with HEK293 greater than 10 µM.

As to `CC(=O)NC[C@@H]1CN(c2ccc(N3CCOCC3)c(F)c2)C(=O)O1`, the MIC against Pseudomonas aeruginosa was greater than 10 µM; in the assay with Acinetobacter baumannii it was greater than 10 µM; against Escherichia coli it was greater than 10 µM; in the assay on Cryptococcus neoformans, greater than 10 µM; in the assay with Klebsiella pneumoniae, greater than 10 µM; against Staphylococcus aureus, 2.5 µM (≈ 0.843 µg/mL). In the assay with Candida albicans, this compound registered an MIC greater than 10 µM. The CC50 in the assay on HEK293 was greater than 10 µM.

As a reminder, the CC50 is the concentration at which the toxic effect on the cells reaches its halfway point. Higher therefore signals better tolerance by the cells.
